This is an account of results in patent US20240344032A1, “ORGANOID PRODUCTION METHOD, CULTURE MEDIUM FOR ORGANOID PRODUCTION, ORGANOID, AND TEST SUBSTANCE EVALUATION METHOD” (JSR CORPORATION, priority 2021, published 2024).

In test [1] the test system is primary human hepatocytes. The test can be described thus: Culturing of human hepatocytes (proliferation of cells). Type of test: cell-based. Here is the method: Cryopreserved primary human hepatocytes in suspension (HEP187-S, manufactured by Biopredic International) were thawed in a water bath at 37° C., suspended in a 50 mL tube to which a serum-free culture medium (a culture medium obtained by adding HEPES, GLUTAMAX, and PENICILIN/STEREPTOMYCIN to Advanced DMEM/F12) had been added, and centrifuged. After the centrifugation, the supernatant was removed, and then the resultant product was suspended in a serum-free culture medium to prepare a human hepatocyte suspension. 20,000 human hepatocytes were collected from the suspension, mixed with 50 μL of Matrigel (registered trademark, manufactured by BD Biosciences), seeded in a 24-well tissue culture plate, and incubated at 37° C. for 10 minutes until Matrigel (registered trademark) was completely polymerized. After the polymerization, a culture medium (500 μL/well) prepared by adding each component to a basal medium to have the concentration shown in Table 4 below was overlaid, and culturing was carried out at 37° C. in the presence of 5% by volume of CO2. Advanced DMEM/F12 was used as a basal medium. The culture medium was exchanged every two or three days.
FIG. 2 is a graph showing a result of measuring the proliferation of cells.
FIG. 3 is a graph showing a result of measuring proliferation of cells in a case where the concentration of the #7401 peptide was set to be low.

In test [2] the test system is Human small intestinal epithelial cells (including human small intestinal stem cells). The test can be described thus: Examination of EGFR signal and p38 MAPK signal: culture of small intestinal epithelial cells, bright field observation and Lgr5-tdTomato reporter assay. The class given is cell-based. Here is the method:
Upregulation of EGFR signal is known to induce cell proliferation. Therefore, the cell proliferative properties in a state where there was no EGFR signal were examined. […] Therefore, culturing was examined in the presence or absence of the p38 MAPK signal.
To the basal medium (Advanced DMEM/F12), each component was added to the concentration shown in Table 5 below to prepare a culture medium. Human small intestinal epithelial cells (including human small intestinal stem cells) were dispersed in Matrigel (registered trademark, manufactured by BD Biosciences). Subsequently, the dispersion product was seeded into each well of a 48-well tissue culture plate and incubated at 37° C. for 10 minutes to polymerize Matrigel (registered trademark).
Subsequently, 300 μL/well of a culture medium was overlaid, and culturing was carried out at 37° C. for 10 days in the presence of 5% by volume of CO2. The culture medium was exchanged every two or three days. Cells were cultured for 10 days in a culture medium containing EGF and cultured for 14 days in a culture medium containing no EGF. Thereafter, bright field observation with an optical microscope in the well and Lgr5-tdTomato reporter assay were carried out.

Test [3] deals with ALK5, VEGFR, RIPK2, MINK1, p38a MAPK, PKD1, and FGF-R1. The note with it: known from the literature; cited from earlier work.
Test [4] has as its system p38 MAPK signaling pathway. The note with it: reported in Vogt J., et al., Cell Signal., 2011; cited from earlier work.
Test [5] concerns Human colon epithelial cells (including human colon stem cells). The test can be described thus: Culturing of human colon epithelial cells (organoid formation). Type of test: cell-based. To be noted: 0.5 nM, 5 nM, or 50 nM in culture medium, 7 days, optical microscope, FIG. 1. Here is the method:
To a basal medium, each component was added to have the concentration shown in Table 3 below to prepare a culture medium. In Table 3, “CM” means conditioned medium. Advanced DMEM/F12 was used as a basal medium. As the peptide, peptide names #7401 and #2392 were used (hereinafter, each may be referred to as “#7401 peptide” and “#2392 peptide”). Regarding the #7401 peptide, a chemical formula is shown in Formula (2-1), and an amino acid sequence (SEQ ID NO: 3) is shown in Formula (2-2). In addition, regarding the #2392 peptide, a chemical formula is shown in Formula (3-1), and an amino acid sequence (SEQ ID NO: 4) is shown in Formula (3-2).
Human colon epithelial cells (including human colon stem cells) were dispersed in Matrigel (registered trademark, manufactured by BD Biosciences). Subsequently, the dispersion product was seeded into each well of a 48-well tissue culture plate and incubated at 37° C. for 10 minutes to polymerize Matrigel (registered trademark).
Subsequently, the culture medium (300 μL/well) prepared in Experimental Example 1 was overlaid on each well, and culturing was carried out at 37° C. for 7 days in the presence of 5% by volume of CO2. The culture medium was exchanged every two or three days.

Where no end group is shown, it is not given here. [ ]: non-standard residue; d: D form. The star is where a group is joined. X1 = 4‑(carboxymethyl)piperazine‑1‑carbonyl, O=C(O)CN1CCN(C(=O)*)CC1; 1Nal = N[C@@H](Cc1cccc2ccccc12)C(=O)O; Gly(NCH2CH2Ph) = O=C(O)CNCCc1ccccc1; 4Pal = N[C@@H](Cc1ccncc1)C(=O)O

For the molecule `Cc1cccc(-c2nn(C(=S)Nc3ccccc3)cc2-c2ccnc3ccccc23)n1` [Peptide A83-01], the proliferation of cells result in test [1] (5 μM added to the culture medium, FIG. 2) is on record as “proliferation of cells is not observed after 35 days”. The “cell proliferative properties and colony forming properties” value in test [2] (medium containing EGF (50 ng/mL), no SB202190, 500 nM and 5000 nM, 10 days, FIG. 5) is “the cell proliferative properties and the colony forming properties were concentration-dependently inhibited”. The “stem cell properties (Lgr5-tdTomato reporter) versus 50 nM or 500 nM #7401 peptide” value in test [2] (medium containing no EGF, no SB202190, 500 nM and 5000 nM, 14 days, FIG. 6) was “higher stem cell properties”. In addition, the “stem cell properties (Lgr5-tdTomato reporter), 5000 nM versus 500 nM” value in test [2] (medium containing no EGF, no SB202190, 14 days, FIG. 6) was “higher stem cell properties”. For the same molecule, in test [3], the “action on ALK5 and off-target kinases/receptors” value is “strongly act”. Besides, the “inhibition of p38 MAPK signaling pathway” value in test [4] is recorded as “inhibits p38 MAPK signaling pathway”.

Regarding “#2392 peptide: cyclic peptide, chemical formula in Formula (3-1), amino acid sequence (SEQ ID NO: 4) in Formula (3-2) (F[1Nal]VVNVTDD[Gly(NCH2CH2Ph)]V[1Nal]THVCG; bridge (positions not given here); not fully specified (bridges))”, the “organoid formation efficiency compared with A83-01” value in test [5] was “organoids can be formed with an efficiency equal to or higher than that in a case where A83-01 was added”.

Take “#7401 peptide: cyclic peptide, chemical formula in Formula (2-1), amino acid sequence (SEQ ID NO: 3) in Formula (2-2) (F[1Nal]VVNV[4Pal]DD[Gly(NCH2CH2Ph)]V[1Nal]THK(X1)CG; bridge (positions not given here); not fully specified (bridges))”: the “organoid formation efficiency compared with A83-01” value in test [5] is recorded as “organoids can be formed with an efficiency equal to or higher than that in a case where A83-01 was added”. The proliferation of cells entry in test [1] (50 nM in the culture medium, FIG. 3) is “cells can sufficiently proliferate”.
